Test results taken from ChEMBL document CHEMBL1275384, “Structure-activity relationships of benzimidazole-based selective inhibitors of the mitogen activated kinase-5 signaling pathway” (2010).

Key:
K562 = experiment: Cytotoxicity against human K562 cells at 10 uM assessed as cell growth relative to control; format: functional; settings: read-out: Activity
NCI-H23 = experiment: Cytotoxicity against human NCI-H23 cells at 10 uM assessed as cell growth relative to control; format: functional; settings: read-out: Activity
HCC 2998 = experiment: Cytotoxicity against human HCC2998 cells at 10 uM assessed as cell growth relative to control; format: functional; settings: read-out: Activity
HCT-15 = experiment: Cytotoxicity against human HCT15 cells at 10 uM assessed as cell growth relative to control; format: functional; settings: read-out: Activity
SF-268 = experiment: Cytotoxicity against human SF268 cells at 10 uM assessed as cell growth relative to control; format: functional; settings: read-out: Activity
SNB-75 = experiment: Cytotoxicity against human SNB75 cells at 10 uM assessed as cell growth relative to control; format: functional; settings: read-out: Activity
U-251 = experiment: Cytotoxicity against human U251 cells at 10 uM assessed as cell growth relative to control; format: functional; settings: read-out: Activity
LOX IMVI = experiment: Cytotoxicity against human LOXIMVI cells at 10 uM assessed as cell growth relative to control; format: functional; settings: read-out: Activity
MDA-MB-435 = experiment: Cytotoxicity against human MDA-MB-435 cells at 10 uM assessed as cell growth relative to control; format: functional; settings: read-out: Activity
SK-MEL-2 = experiment: Cytotoxicity against human SK-MEL-2 cells at 10 uM assessed as cell growth relative to control; format: functional; settings: read-out: Activity
OVCAR-4 = experiment: Cytotoxicity against human OVCAR4 cells at 10 uM assessed as cell growth relative to control; format: functional; settings: read-out: Activity
OVCAR-5 = experiment: Cytotoxicity against human OVCAR5 cells at 10 uM assessed as cell growth relative to control; format: functional; settings: read-out: Activity
TK-10 = experiment: Cytotoxicity against human TK10 cells at 10 uM assessed as cell growth relative to control; format: functional; settings: read-out: Activity
MCF7 = experiment: Cytotoxicity against human MCF7 cells at 10 uM assessed as cell growth relative to control; format: functional; settings: read-out: Activity
T47D = experiment: Cytotoxicity against human T47D cells at 10 uM assessed as cell growth relative to control; format: functional; settings: read-out: Activity
[1] = biological target: Dual specificity mitogen-activated protein kinase kinase; MEK1/2 (Homo sapiens) (UniProt P36507+Q02750); settings: HEK293, at 10 µM
Description: Inhibition of EGF-induced MEK1/2 activity in HEK293 cells assessed as phosphorylated ERK1/2 level at 10 uM after 1 hr by Western blotting relative to control

PC-3 = experiment: Cytotoxicity against human PC3 cells at 10 uM assessed as cell growth relative to control; format: functional; settings: read-out: Activity

Dual specificity mitogen-activated protein kinase kinase; MEK1/2 (Homo sapiens), sequence (P36507 whole entry, looked up): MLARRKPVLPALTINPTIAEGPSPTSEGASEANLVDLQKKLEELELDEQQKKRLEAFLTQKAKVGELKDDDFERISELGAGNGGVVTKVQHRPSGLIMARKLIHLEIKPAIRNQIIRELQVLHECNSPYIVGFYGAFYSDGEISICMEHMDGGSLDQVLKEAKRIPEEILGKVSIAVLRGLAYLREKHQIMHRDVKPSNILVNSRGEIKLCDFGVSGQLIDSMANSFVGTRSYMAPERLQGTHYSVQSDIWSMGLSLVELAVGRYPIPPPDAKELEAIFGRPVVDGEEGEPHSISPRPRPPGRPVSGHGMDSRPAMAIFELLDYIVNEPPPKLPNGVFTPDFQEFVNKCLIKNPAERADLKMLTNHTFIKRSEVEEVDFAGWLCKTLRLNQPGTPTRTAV
Dual specificity mitogen-activated protein kinase kinase; MEK1/2 (Homo sapiens), sequence (Q02750 whole entry, looked up): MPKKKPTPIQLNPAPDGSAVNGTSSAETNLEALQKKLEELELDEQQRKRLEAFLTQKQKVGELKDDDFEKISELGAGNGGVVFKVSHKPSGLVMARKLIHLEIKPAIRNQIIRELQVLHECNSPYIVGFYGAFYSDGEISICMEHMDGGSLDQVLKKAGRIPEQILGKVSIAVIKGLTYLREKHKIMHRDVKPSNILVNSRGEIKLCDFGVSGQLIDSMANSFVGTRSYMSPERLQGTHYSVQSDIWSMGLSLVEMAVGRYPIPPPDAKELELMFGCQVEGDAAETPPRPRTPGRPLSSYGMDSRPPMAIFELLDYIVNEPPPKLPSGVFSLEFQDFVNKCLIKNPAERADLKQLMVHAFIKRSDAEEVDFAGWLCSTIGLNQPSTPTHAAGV

SMILES	growth at 10 µM (K562)	growth at 10 µM (NCI-H23)	growth at 10 µM (HCC 2998)	growth at 10 µM (HCT-15)	growth at 10 µM (SF-268)	growth at 10 µM (SNB-75)	growth at 10 µM (U-251)	growth at 10 µM (LOX IMVI)	growth at 10 µM (MDA-MB-435)	growth at 10 µM (SK-MEL-2)	growth at 10 µM (OVCAR-4)	growth at 10 µM (OVCAR-5)	growth at 10 µM (TK-10)	growth at 10 µM (MCF7)	growth at 10 µM (T47D)	inhibition [1]	growth at 10 µM (PC-3)
COc1cc(NCc2ccccc2)c2ncn(C(C)C)c2c1	64.2%	91.1%	105%	97.9%	125%	92.3%	103%	115%	122%	91.6%	50.6%	97.2%	136%	5.8%	80.1%	54%	–
COCCCOc1cc(NCc2ccccc2)c2ncn(C(C)C)c2c1	90.9%	109%	91.7%	110%	96.7%	92%	95.6%	94.5%	110%	92.7%	87.8%	91.5%	109%	93.2%	91.9%	–	96.1%
